Source: US8309558B2, “Compounds for the treatment of hepatitis C” (Bristol-Myers Squibb Company, priority 2008, dated 2012)
Read-outs that look alike come from different tables or passages of the source.

How the values were obtained:
HCV replicon cells = test: HCV replicon FRET / luciferase assay (96-well plates); assay type: cell-based; conditions: Hepatitis C virus, HCV replicon, read-out: EC50
Procedure, shortened: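 Replicon cells + titrated cpds, 37 °C CO2. Alamar blue for cytotoxicity, PBS rinse, then lysis reagent w/ 20 μM FRET peptide (EDANS/DABCYL), 150 mM NaCl; kinetic read ex340/em490, 20 cycles. Alt: Dual-Glo luciferase. EC50 = 50% drop in FRET/luciferase signal after background subtraction.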

[1] = target: T1, HCV NS5B RdRp genotype 1b (Hepatitis C virus genotype 1b, UniProt Q9WMX2); test: Standard HCV NS5B RdRp enzyme assay; assay type: biochemical; conditions: HCV NS5B RdRp genotype 1b, read-out: IC50
T1 construct: The protein was expressed with an 18 amino acid C-terminal truncation to enhance the solubility; made in house; host or cells: E. coli BL21(DE3), pET21a vector
T1 sequence (Q9WMX2 2420-2992): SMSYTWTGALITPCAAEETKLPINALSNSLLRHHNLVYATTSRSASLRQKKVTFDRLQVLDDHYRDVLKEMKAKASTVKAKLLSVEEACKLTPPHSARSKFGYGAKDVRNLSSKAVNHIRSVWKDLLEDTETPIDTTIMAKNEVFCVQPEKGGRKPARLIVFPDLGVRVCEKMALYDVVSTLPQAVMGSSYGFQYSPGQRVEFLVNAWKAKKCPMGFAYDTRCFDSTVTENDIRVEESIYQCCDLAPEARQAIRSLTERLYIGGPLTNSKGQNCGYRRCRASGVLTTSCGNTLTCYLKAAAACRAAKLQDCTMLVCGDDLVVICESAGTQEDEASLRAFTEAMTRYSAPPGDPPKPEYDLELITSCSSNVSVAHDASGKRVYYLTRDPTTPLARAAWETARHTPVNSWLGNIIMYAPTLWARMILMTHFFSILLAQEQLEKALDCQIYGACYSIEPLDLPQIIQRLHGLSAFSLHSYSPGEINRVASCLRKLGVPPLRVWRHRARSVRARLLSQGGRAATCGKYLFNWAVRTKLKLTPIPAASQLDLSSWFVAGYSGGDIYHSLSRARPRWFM
Procedure, shortened: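 C-terminally truncated (18 aa) genotype 1b NS5B from E. coli, 28 nM, with 6 nM polyA template, 180 nM biotinylated oligo-dT12 primer and 3H-UTP (0.29 μM total UTP). Hepes pH 7.5 buffer with 2% DMSO; 60 min at 30° C. EDTA stop, SPA read-out; IC50 from seven concentrations by four-parameter fit.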

[2] = untitled table after Table 1b, values without asterisk

## CNC(=O)c1c(-c2ccc(F)cc2)oc2ccc(-c3cc(C(=O)NC4(c5ccccn5)CC4)ccc3Cl)cc12 [drawing 384]
HCV replicon cells; Table 1b
  EC50: < 250 nM
[1]; Table 1b
  IC50: < 250 nM

## CNC(=O)c1c(-c2ccc(F)cc2)oc2ccc(-c3cccc(C(=O)NC(C)(C)C(=O)Nc4nccs4)c3)cc12
HCV replicon cells; Table 1a
  EC50: < 250 nM
[1]; Table 1a
  IC50: < 250 nM

## CNC(=O)c1c(-c2ccc(F)cc2)oc2ccc(-c3cc(C(=O)NC4(c5cccnc5)CC4)ccc3C)cc12
HCV replicon cells; Table 1b
  EC50: < 250 nM
[1]; Table 1b
  IC50: < 20 nM

## C#CCOc1cc(C(=O)NCC(C)C)cc(-c2ccc3oc(-c4ccc(F)cc4)c(C(=O)NC)c3c2)c1
HCV replicon cells; Table 1b
  EC50: 1000 to 10000 nM
[1]; Table 1b
  IC50: 1000 to 10000 nM

## CNC(=O)c1c(-c2ccc(F)cc2)oc2ccc(-c3cc(C(=O)NC4(c5ccccn5)CC4)ccc3C(F)(F)F)cc12
HCV replicon cells; Table 1b
  EC50: < 250 nM
[1]; Table 1b
  IC50: < 250 nM

## CNC(=O)c1c(-c2ccc(F)cc2)oc2ccc(OCCCNC(=O)OC(C)(C)C)cc12
HCV replicon cells; Table 1a
  EC50: 1000 to 10000 nM
[1]; Table 1a
  IC50: 1000 to 10000 nM

## CNC(=O)c1c(-c2ccc(F)cc2)oc2ccc(-c3cccc(C(=O)N(C)CCN(C)C)c3)cc12
HCV replicon cells; Table 1a
  EC50: 1000 to 10000 nM
[1]; Table 1a
  IC50: > 10000 nM

## CNC(=O)c1c(-c2ccc(F)cc2)oc2ccc(-c3ccc(Cl)cc3C(=O)O)cc12
HCV replicon cells; Table 1a
  EC50: > 10000 nM
[1]; Table 1a
  IC50: 1000 to 10000 nM

## CNC(=O)c1c(-c2ccc(F)cc2)oc2ccc(-c3cc(C(=O)NC4(c5nnn[nH]5)CC4)ccc3C)cc12
HCV replicon cells; Table 1b
  EC50: 1000 to 10000 nM
[1]; Table 1b
  IC50: < 250 nM

## CNC(=O)c1c(-c2ccc(F)cc2)oc2ccc(-c3cc(C(=O)NCC(C)C)ccc3OC(C)C)cc12
HCV replicon cells; Table 1a
  EC50: 250 to 1000 nM
[1]; Table 1a
  IC50: 250 to 1000 nM

## CNC(=O)c1c(-c2ccc(F)cc2)oc2ccc(-c3cc(C(=O)NC4(c5ccccn5)CC4)ccc3OC(F)(F)F)cc12
HCV replicon cells; Table 1b
  EC50: < 250 nM
[1]; Table 1b
  IC50: 250 to 1000 nM

## CNC(=O)c1c(-c2ccc(F)cc2)oc2ccc(-c3cccc(C(=O)NC4(c5ccc(Cl)cc5)CC4)c3)cc12
HCV replicon cells; Table 1b
  EC50: < 250 nM
[1]; Table 1b
  IC50: < 250 nM

## CNC(=O)c1c(-c2ccc(F)cc2)oc2ccc(-c3cccc(C(=O)NCc4ccccc4N)c3)cc12
HCV replicon cells; Table 1a
  EC50: 1000 to 10000 nM
[1]; Table 1a
  IC50: 1000 to 10000 nM

## CNC(=O)c1c(-c2ccc(F)cc2)oc2ccc(-c3ccc(C(=O)N4CCC[C@@H]4COC)cc3)cc12 [drawing 621]
HCV replicon cells; [2]
  EC50: 15400 nM
[1]; untitled table after Table 1b
  IC50: 10400 nM

## CNC(=O)c1c(-c2ccc(F)cc2)oc2ccc(-c3cc(C(=O)NC4(c5nnc(-c6cccc(Cl)c6)[nH]5)CC4)ccc3C)cc12
HCV replicon cells; Table 1b
  EC50: < 250 nM
[1]; Table 1b
  IC50: < 250 nM

## CNC(=O)c1c(-c2ccc(F)cc2)oc2ccc(-c3ccc(C(=O)NCC(N)=O)cc3)cc12
HCV replicon cells; Table 1a
  EC50: > 10000 nM
[1]; Table 1a
  IC50: > 10000 nM

## CNC(=O)c1c(-c2ccc(F)cc2)oc2ccc(-c3cc(C(=O)NC4(c5ccccc5)CC4)ccc3OCCN(C)C)cc12
HCV replicon cells; Table 1b
  EC50: < 250 nM
[1]; Table 1b
  IC50: < 250 nM

## CNC(=O)c1c(-c2ccc(F)cc2)oc2ccc(-c3cccc(C(=O)NC(C)(C)c4cccnc4)c3)cc12
HCV replicon cells; Table 1b
  EC50: < 250 nM
[1]; Table 1b
  IC50: < 250 nM

## CNC(=O)c1c(-c2ccc(F)cc2)oc2ccc(-c3cccc(C(=O)N4CCCC(C)C4)c3)cc12 (stereo not drawn)
HCV replicon cells; Table 1a
  EC50: 1000 to 10000 nM
[1]; Table 1a
  IC50: 1000 to 10000 nM

## CNC(=O)c1c(-c2ccc(F)cc2)oc2ccc(-c3cccc(-c4nc(-c5ccccc5)no4)c3)cc12
HCV replicon cells; Table 1b
  EC50: < 250 nM
[1]; Table 1b
  IC50: > 10000 nM

## CNC(=O)c1c(-c2ccc(F)cc2)oc2ccc(-c3cccc(S(=O)(=O)NC)c3)cc12
HCV replicon cells; Table 1a
  EC50: > 3700 nM
[1]; Table 1a
  IC50: > 10000 nM

## CNC(=O)c1c(-c2ccc(F)cc2)oc2ccc(-c3ccc(OC)nc3)cc12
HCV replicon cells; Table 1a
  EC50: > 1230 nM
[1]; Table 1a
  IC50: > 10000 nM

## CNC(=O)c1c(-c2ccc(F)cc2)oc2ccc(-c3cc(C(=O)NCC(C)C)ccc3OCCN3CCCCC3)cc12
HCV replicon cells; Table 1b
  EC50: < 250 nM
[1]; Table 1b
  IC50: 250 to 1000 nM

## CNC(=O)c1c(-c2ccc(F)cc2)oc2ccc(-c3cccc(C(=O)NC(C)c4cccnc4)c3)cc12 (stereo not drawn)
HCV replicon cells; Table 1a
  EC50: 250 to 1000 nM
[1]; Table 1a
  IC50: < 250 nM

## CNC(=O)c1c(-c2ccc(F)cc2)oc2ccc(-c3cc(C(=O)NC4(c5ccccn5)CC4)ccc3OCCN(C)C)cc12
HCV replicon cells; Table 1b
  EC50: < 250 nM
[1]; Table 1b
  IC50: < 250 nM

## CNC(=O)c1c(-c2ccc(F)cc2)oc2ccc(-c3cc(C(=O)NCC(C)C)ccc3OCCCN3CCN(C)CC3)cc12
HCV replicon cells; Table 1b
  EC50: < 250 nM
[1]; Table 1b
  IC50: < 250 nM

## CNC(=O)c1c(-c2ccc(F)cc2)oc2ccc(-c3cc(C(=O)NC4(c5ncccn5)CC4)c(OC)cc3C)cc12
HCV replicon cells; Table 1b
  EC50: < 250 nM
[1]; Table 1b
  IC50: < 250 nM

## CNC(=O)c1c(-c2ccc(F)cc2)oc2ccc(-c3cc(C(=O)NC4(c5ccccc5)CC4)ccc3OC)cc12 [drawing 356]
HCV replicon cells; Table 1b
  EC50: < 250 nM
[1]; Table 1b
  IC50: < 250 nM

## CCC(C)NC(=O)c1cccc(-c2ccc3oc(-c4ccc(F)cc4)c(C(=O)NC)c3c2)c1 (stereo not drawn)
HCV replicon cells; Table 1a
  EC50: < 250 nM
[1]; Table 1a
  IC50: < 250 nM

## CNC(=O)c1c(-c2ccc(F)cc2)oc2ccc(-c3cc(C(=O)O)cc([N+](=O)[O-])c3)cc12
HCV replicon cells; Table 1a
  EC50: > 10000 nM
[1]; Table 1a
  IC50: 250 to 1000 nM

## CNC(=O)c1c(-c2ccc(F)cc2)oc2cc(N(CCO)S(C)(=O)=O)c(-c3cccc(C(=O)NC(C)(C)c4ccc(F)cc4)c3)cc12
HCV replicon cells; Table 1b
  EC50: < 250 nM
[1]; Table 1b
  IC50: < 250 nM

## CNC(=O)c1c(-c2ccc(F)cc2)oc2ccc(-c3cc(C(=O)NC(C)(C)C)ccc3C)cc12
HCV replicon cells; Table 1b
  EC50: < 250 nM
[1]; Table 1b
  IC50: < 250 nM

## CNC(=O)c1c(-c2ccc(F)cc2)oc2ccc(-c3cccc(C(=O)N[C@H]4CCC[C@H]4c4ccc(Cl)cc4)c3)cc12 [drawing 612]
HCV replicon cells; [2]
  EC50: 1130 nM
[1]; untitled table after Table 1b
  IC50: > 12500 nM

## CNC(=O)c1c(-c2ccc(F)cc2)oc2ccc(-c3cc(C(=O)NC4(c5nnc(C(C)C)[nH]5)CC4)ccc3C)cc12
HCV replicon cells; Table 1b
  EC50: < 250 nM
[1]; Table 1b
  IC50: < 250 nM

## CNC(=O)c1c(-c2ccc(F)cc2)oc2ccc(-c3cccc(C(=O)NS(=O)(=O)c4ccccc4)c3)cc12
HCV replicon cells; Table 1a
  EC50: 1000 to 10000 nM
[1]; Table 1a
  IC50: < 250 nM

## CNC(=O)c1c(-c2ccc(F)cc2)oc2ccc(-c3cccc(C(=O)NCCNC(C)=O)c3)cc12
HCV replicon cells; Table 1a
  EC50: 1000 to 10000 nM
[1]; Table 1a
  IC50: 1000 to 10000 nM

## CNC(=O)c1c(-c2ccc(F)cc2)oc2ccc(-c3cccc(C(=O)O)c3OC)cc12
HCV replicon cells; [2]
  EC50: 13300 nM
[1]; untitled table after Table 1b
  IC50: 4750 nM

## CNC(=O)c1c(-c2ccc(F)cc2)oc2ccc(-c3ccc(-c4ccccc4C(N)=O)c(C(=O)NC4(c5ccccn5)CC4)c3)cc12
HCV replicon cells; Table 1b
  EC50: < 250 nM
[1]; Table 1b
  IC50: < 250 nM

## CNC(=O)c1c(-c2ccc(F)cc2)oc2ccc(-c3cc(C(=O)NCC(C)C)ccc3OCc3c[nH]c(C)n3)cc12
HCV replicon cells; Table 1b
  EC50: < 250 nM
[1]; Table 1b
  IC50: < 250 nM

## CNC(=O)c1c(-c2ccc(F)cc2)oc2ccc(-c3cccc(C(=O)Nc4cccc(OC)c4)c3)cc12
HCV replicon cells; Table 1a
  EC50: 1000 to 10000 nM
[1]; Table 1a
  IC50: 1000 to 10000 nM

## CNC(=O)c1c(-c2ccc(F)cc2)oc2ccc(-c3ccc(-c4cc(F)cc(F)c4)c(C(=O)NCC(C)C)c3)cc12
HCV replicon cells; Table 1b
  EC50: < 250 nM
[1]; Table 1b
  IC50: 250 to 1000 nM

## CNC(=O)c1c(-c2ccc(C)cc2)oc2ccc(-c3cc(C(=O)NC4(c5nc(COC)no5)CC4)ccc3C)cc12
HCV replicon cells; Table 1b
  EC50: < 250 nM
[1]; Table 1b
  IC50: < 250 nM

## CNC(=O)c1c(-c2ccc(F)cc2)oc2ccc(-c3cccc(C(=O)NCc4ccccn4)c3)cc12
HCV replicon cells; Table 1a
  EC50: 250 to 1000 nM
[1]; Table 1a
  IC50: < 250 nM

## CNC(=O)c1c(-c2ccc(F)cc2)oc2ccc(-c3cccc(C(=O)N(C)CCOC)c3)cc12
HCV replicon cells; Table 1a
  EC50: 1000 to 10000 nM
[1]; Table 1a
  IC50: 1000 to 10000 nM

## CNC(=O)c1c(-c2ccc(F)cc2)oc2ccc(-c3cccc(C(=O)NC4CCCC4)c3)cc12
HCV replicon cells; Table 1a
  EC50: < 250 nM
[1]; Table 1a
  IC50: < 250 nM

## CNC(=O)c1c(-c2ccc(F)cc2)oc2ccc(-c3cccc(C(=O)Nc4ccccn4)c3)cc12
HCV replicon cells; Table 1a
  EC50: < 250 nM
[1]; Table 1a
  IC50: < 250 nM

## CNC(=O)c1c(-c2ccc(F)cc2)oc2ccc(-c3cccc(C(=O)Nc4ccncn4)c3)cc12
HCV replicon cells; Table 1a
  EC50: 250 to 1000 nM
[1]; Table 1a
  IC50: 250 to 1000 nM

## CNC(=O)c1c(-c2ccc(F)cc2)oc2ccc(-c3ccc(C(=O)NCCOC)cc3)cc12
HCV replicon cells; Table 1a
  EC50: > 10000 nM
[1]; Table 1a
  IC50: > 10000 nM

## CNC(=O)c1c(-c2ccc(F)cc2)oc2ccc(-c3cc(C(=O)NCC(C)C)ccc3OCC(F)F)cc12
HCV replicon cells; Table 1b
  EC50: < 250 nM
[1]; Table 1b
  IC50: 250 to 1000 nM

## CNC(=O)c1c(-c2ccc(F)cc2)oc2ccc(-c3cccc(C(=O)NC4(c5ccccn5)CC4)c3F)cc12
HCV replicon cells; Table 1b
  EC50: < 250 nM
[1]; Table 1b
  IC50: < 250 nM

## CNC(=O)c1c(-c2ccc(F)cc2)oc2ccc(-c3cc(C(=O)NC4(c5ccccn5)CC4)cc(O)c3C)cc12
HCV replicon cells; Table 1b
  EC50: < 250 nM
[1]; Table 1b
  IC50: < 250 nM
